EP3349734B1, “USE OF SOLUBLE AND INSOLUBLE FRACTIONS OF A CYCLODEXTRIN POLYMER AND OF MIXTURES THEREOF AS AN EXCIPIENT IN A TABLET” (Université de Lille, priority 2015, dated 2017)

Experiments:
Format in all cases: physicochemical
[1] = Phase-solubility diagram of ibuprofène with cyclodextrins or soluble polymer fractions; conditions: calculated from slope and So of the solubility diagram
Description: (§1) Les diagrammes de solubilité de plusieurs principes actifs ont été effectués en présence de cyclodextrines et de fractions solubles de polymères de cyclodextrine mentionnés à l'exemple 1.
(§2) Des solutions de concentration croissante de cyclodextrines et fractions solubles de polymères de cyclodextrine ont été préparées dans de l'eau ultrapure [0-70 g/L]. 10 mL de chacune des solutions ont été mis en présence d'un excès du principe actif (20 mg) sous agitation pendant 24 heures à température ambiante. Les solutions ont ensuite été filtrées avec une membrane en cellulose et en Nylon (0,45 µm; VWR International, USA) respectivement pour l'Ibuprofène et le Piroxicam. L'ibuprofène a été dosé par HPLC (Shimadzu LC-2010 HT Liquid Chromatography), la phase mobile de l'ibuprofène est un mélange acétonitrile/eau (60:40) avec un pH de 2,25, une colonne C18 a été utilisée. Le piroxicam a été dosé par spectrophotométrie UV-Vis à 356 nm (UV 1800 Shimadzu).
(§3) La constante de stabilité (K1:1) est utilisée pour comparer l'affinité de principes actifs pour différentes cyclodextrines ou dérivés. La solubilité totale de médicament (St) en solution aqueuse de cyclodextrine sera : [formula]
(§4) So = solubilité intrinsèque du médicament; [CD]1 = concentration totale en cyclodextrine dans le milieu aqueux
(§5) Une parcelle de St rapport [CD] t, selon l'équation (1), donnera une ligne droite avec une pente (K 1:1 So / (1 + K 1:1 So)) et une interception (Sint) égale à So. K 1:1 est calculée à partir de la pente et So : [formula]
Afin de pouvoir faire une comparaison directe entre cyclodextrine monomère et cyclodextrine polymérisée, les diagrammes de solubilité sont présentés en fonction de la concentration rapportée en gramme de monomère de cyclodextrine par litre. Tableau 3 : Solubilité de l'ibuprofène et constantes de complexation en présence des cyclodextrines ou de fractions solubles de polymères de cyclodextrine à 10 et 50 g/L en cyclodextrine. L'utilisation de cyclodextrines sous forme de monomères ne tombe pas sous l'étendue de la protection revendiquée.

[2] = Tablet breaking strength (hardness), 5 mm / 100 mg tablets; conditions: no active ingredient, no other additive
Text: La machine à comprimer alternative utilisée était une Korsch (Allemagne) équipé de poinçon plat cylindrique de diamètre 5 mm. Les étapes de compression étaient les suivantes: (1) le remplissage de la matrice par écoulement du mélange, (2) arasage, (3) compression et (4) éjection du comprimé. L'épaisseur moyenne des comprimés est de 3,2 mm.
Cet essai est destiné à déterminer, dans des conditions définies, la résistance à la rupture des comprimés, mesurée par la force nécessaire pour les rompre par écrasement entre deux mâchoires.
L'appareil utilisé (PTB 311E, Pharma test Instruments, Inde) est constitué de deux mâchoires se faisant face, dont l'une se déplace vers l'autre qui est fixe. Les surfaces planes des mâchoires sont perpendiculaires à la direction de déplacement.
Le mode opératoire consistait à mettre en place le comprimé à plat entre les mâchoires, puis, une mâchoire se déplaçait à vitesse constante pour appliquer une force jusqu'à la rupture du comprimé. Cette force maximale est notée et considérée comme la dureté du comprimé. La façon dont un comprimé se fracture quand une force croissante est appliquée varie considérablement selon les diverses caractéristiques des produits.

[3] = Tapped density, Carr compressibility index and flow of the powder; conditions: for TAP (Ic^∗): Carr index after 500 taps
Description: Densité après tassement et indice de compressibilité de la composition compressible.
L'appareil utilisé est un appareil de tassement (Engelsmann powder tester, PTTD200, Pharma Test Instruments, India) composé d'une éprouvette graduée de 100 mL sur un socle vibrant. Les manipulations ont été réalisées suivant les conditions décrites dans la pharmacopée européenne (1997). Pour chaque poudre, le volume initial avant tassement est mesuré (V0) permettant de calculer la densité p0. Le volume final (Vf) de la poudre est ensuite mesuré après 500 tassements. La densité finale de la poudre après tassement peut ainsi être calculée (pf). On en déduit également l'indice de compressibilité ou Indice de Carr (Ic) donné par la formule suivante : [formula]
Les poudres ayant un indice de Carr inférieur à 20% présentent un bon écoulement.

[4] = Tablet disintegration time in water; conditions: 100 mg tablets
Description: L'appareil utilisé était un appareil de désintégration manuelle PTZ-S, Pharma Test Instruments (Inde), composé d'un panier porte-tubes, un vase cylindrique bas de 1000 mL destiné à contenir le fluide d'immersion, un agencement thermostatique pour chauffer le fluide entre 35°C et 39°C, et d'un dispositif servant à imprimer au porte-tubes, dans le liquide d'immersion, un mouvement vertical alternatif. Le panier est composé de six tubes transparents verticaux, ouverts à leur extrémité supérieure et fermés à l'extrémité inférieure par une grille, un comprimé était placé dans chacun des six tubes du panier. Le fluide d'immersion était l'eau.
Le temps de désintégration a été déterminé comme le temps nécessaire pour que les comprimés passent à travers les mailles de la grille.

[5] = Hygroscopicity: water vapour sorption/desorption isotherm (TGA Q5000 SA, 25°C, up to 98% RH); conditions: up to 98% relative humidity
Description: Les mesures d'absorption et de désorption d'eau des polymères ont été réalisées à l'aide d'un analyseur thermogravimétrique SA Q5000 de TA Instruments contenant une microbalance dans lequel des creusets contenant l'échantillon et la référence ont été enfermés dans une chambre à humidité et température contrôlées. La température dans le Q5000 SA a été contrôlée par des éléments Peltier. Un gaz sec de N2 (200 mL/min) a été divisé en deux parties, dont une partie a été humidifiée par passage dans une chambre saturée d'eau. L'humidité relative souhaitée (RH) pour les mesures peut ainsi être obtenue par mélange des proportions appropriées (régulées par les contrôleurs de débit massique) de flux sec et humide.
La mesure de l'isotherme standard est composée d'un certain nombre d'étapes. Premièrement, l'échantillon a été séché à 60°C et 0% d'humidité relative pendant un temps déterminé jusqu'à ce que la variation de poids soit stabilisée à moins de 0,05%. Dans un second temps, la température a été abaissée à 25°C. L'humidité a ensuite été augmentée progressivement (par pas de 2% d'humidité relative) à un maximum de 98% d'humidité relative. La variation de poids de l'échantillon a été stabilisée après chaque étape jusqu'à ce qu'elle soit inférieure à 0,05%. L'isotherme de désorption de l'eau a également été mesurée. […]

[6] = Phase-solubility diagram of piroxicam with cyclodextrins or soluble polymer fractions; conditions: calculated from slope and So of the solubility diagram
Description: as §1, §2, §3, §4, §5

- Constante de complexation K1:1 [1]: 11 M⁻¹
- Résistance à la rupture [2]: 45-50 N
- TAP (Ic^∗) [3]: > 20%
- TAP (Ic^∗) ([3]; listed as CD (monomère)): 23,1%
- Ecoulement ([3]; powder of βCD polymer fractions): Non Libre
- Temps de désagrégation [4]: > 30 min
- valeur maximale de prise d'eau [5]: 0,18 g/g
- Constante de complexation K1:1 [6]: 173 M⁻¹
Structure (SMILES): OC[C@H]1O[C@@H]2O[C@H]3[C@H](O)[C@@H](O)[C@@H](O[C@H]4[C@H](O)[C@@H](O)[C@@H](O[C@H]5[C@H](O)[C@@H](O)[C@@H](O[C@H]6[C@H](O)[C@@H](O)[C@@H](O[C@H]7[C@H](O)[C@@H](O)[C@@H](O[C@H]8[C@H](O)[C@@H](O)[C@@H](O[C@H]1[C@H](O)[C@H]2O)O[C@@H]8CO)O[C@@H]7CO)O[C@@H]6CO)O[C@@H]5CO)O[C@@H]4CO)O[C@@H]3CO [βCD, β-cyclodextrine]
